Assay [1] has as its system HEK293. Briefly: inhibition of NOD1-driven NF-kB reporter – cell-based, luminescence, uHTS, primary screen (AID 1578). As to conditions: Homo sapiens. In kind it is functional.
The nature of assay [2]: Luminescence Cell-Based Dose Retest to Confirm Inhibitors of Cancer Stem Cells. [Related pubchem assays (depositor defined):AID2717, AID2721]. Format: functional. As to conditions: Homo sapiens.
Assay [3] deals with HEK293. Description: cells. In kind it is functional, cell-based. As to conditions: Homo sapiens.
Assay [4] concerns HEK293. Description: cells. In kind it is functional, cell-based. The note with it: Homo sapiens. This is another data set of the same source.
In assay [5] the test system is HEK293. Description: NOD2 signaling inhibitors in MDP-stimulated cells, cell-based, uHTS, luminescence (AID 2001). Format: functional. The note with it: Homo sapiens.
Assay [6] has as its system Vero. Description: cells. Format: functional, cell-based. The note with it: Chlorocebus sabaeus.
Assay [7] concerns the target T1, Heat shock factor protein 1 (Mus musculus, UniProt P38532).
T1 sequence (P38532 whole entry): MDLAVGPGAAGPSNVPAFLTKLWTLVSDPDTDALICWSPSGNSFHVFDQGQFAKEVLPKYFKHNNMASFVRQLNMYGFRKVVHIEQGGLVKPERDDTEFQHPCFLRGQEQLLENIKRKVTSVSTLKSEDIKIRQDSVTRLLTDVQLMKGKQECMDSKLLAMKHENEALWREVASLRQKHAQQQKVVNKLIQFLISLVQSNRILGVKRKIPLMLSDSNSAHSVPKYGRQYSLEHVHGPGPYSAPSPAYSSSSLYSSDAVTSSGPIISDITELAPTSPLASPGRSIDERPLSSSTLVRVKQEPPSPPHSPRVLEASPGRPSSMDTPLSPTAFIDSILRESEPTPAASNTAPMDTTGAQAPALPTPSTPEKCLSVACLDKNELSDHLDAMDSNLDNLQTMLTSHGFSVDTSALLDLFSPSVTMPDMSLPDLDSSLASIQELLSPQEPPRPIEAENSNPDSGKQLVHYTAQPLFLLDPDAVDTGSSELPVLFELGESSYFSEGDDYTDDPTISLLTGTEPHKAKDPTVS
Description: enhancement of HSF1-driven luciferase signal – cell-based, NIH3T3, luminescence, dose retest, confirmation (AID 435004).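 Further: stress induced by proteasome inhibitor MG132 added 30 min after compound; luciferase reporter driven by HSF1 response element in NIH3T3 cells; actives raise luminescence as potentiators of the MG132 stress response.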 Format: functional.

In assay [8] the test system is Vero. Description: cells. Format: functional. The note with it: Chlorocebus sabaeus.
The next assay concerns HeLa. Description: ATP-based viability loss in HeLa cells – cell-based, CellTiter-Glo luminescence, cherry-pick samples, cytotoxicity control for MITF activator project, dose response (AID 540259). As to conditions: Homo sapiens. Format: functional.
Assay [9] in a line: Counterscreen for AddAB inhibitors: absorbance-based bacterial cell-based high throughput dose response assay for inhibitors of bacterial viability. [Related pubchem assays (depositor defined):AID435030, AID449728, AID449731, AID488942, AID488955, AID488956]. In kind it is functional. (The purpose of a counterscreen is to sort out artefacts and off-target activity.)
The next assay addresses T2, Exodeoxyribonuclease V (Escherichia coli (strain K12), UniProt P04993+P07648+P08394).
T2 sequence (P04993 whole entry): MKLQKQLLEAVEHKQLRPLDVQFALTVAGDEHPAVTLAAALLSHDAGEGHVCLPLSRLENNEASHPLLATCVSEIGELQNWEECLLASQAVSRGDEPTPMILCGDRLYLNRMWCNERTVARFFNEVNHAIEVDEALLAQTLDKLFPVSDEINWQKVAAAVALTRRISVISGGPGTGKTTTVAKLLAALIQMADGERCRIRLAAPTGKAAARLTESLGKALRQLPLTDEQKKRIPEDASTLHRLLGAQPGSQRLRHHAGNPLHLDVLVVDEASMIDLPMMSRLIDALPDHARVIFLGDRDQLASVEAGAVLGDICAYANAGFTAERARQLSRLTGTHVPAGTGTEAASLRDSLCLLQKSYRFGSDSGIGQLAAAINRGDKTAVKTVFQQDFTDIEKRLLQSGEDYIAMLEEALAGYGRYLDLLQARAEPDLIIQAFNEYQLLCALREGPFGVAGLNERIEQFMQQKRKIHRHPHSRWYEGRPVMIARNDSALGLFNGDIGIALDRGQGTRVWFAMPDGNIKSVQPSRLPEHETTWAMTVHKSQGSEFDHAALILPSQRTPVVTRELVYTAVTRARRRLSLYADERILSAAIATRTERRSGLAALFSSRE
T2 sequence (P07648 whole entry): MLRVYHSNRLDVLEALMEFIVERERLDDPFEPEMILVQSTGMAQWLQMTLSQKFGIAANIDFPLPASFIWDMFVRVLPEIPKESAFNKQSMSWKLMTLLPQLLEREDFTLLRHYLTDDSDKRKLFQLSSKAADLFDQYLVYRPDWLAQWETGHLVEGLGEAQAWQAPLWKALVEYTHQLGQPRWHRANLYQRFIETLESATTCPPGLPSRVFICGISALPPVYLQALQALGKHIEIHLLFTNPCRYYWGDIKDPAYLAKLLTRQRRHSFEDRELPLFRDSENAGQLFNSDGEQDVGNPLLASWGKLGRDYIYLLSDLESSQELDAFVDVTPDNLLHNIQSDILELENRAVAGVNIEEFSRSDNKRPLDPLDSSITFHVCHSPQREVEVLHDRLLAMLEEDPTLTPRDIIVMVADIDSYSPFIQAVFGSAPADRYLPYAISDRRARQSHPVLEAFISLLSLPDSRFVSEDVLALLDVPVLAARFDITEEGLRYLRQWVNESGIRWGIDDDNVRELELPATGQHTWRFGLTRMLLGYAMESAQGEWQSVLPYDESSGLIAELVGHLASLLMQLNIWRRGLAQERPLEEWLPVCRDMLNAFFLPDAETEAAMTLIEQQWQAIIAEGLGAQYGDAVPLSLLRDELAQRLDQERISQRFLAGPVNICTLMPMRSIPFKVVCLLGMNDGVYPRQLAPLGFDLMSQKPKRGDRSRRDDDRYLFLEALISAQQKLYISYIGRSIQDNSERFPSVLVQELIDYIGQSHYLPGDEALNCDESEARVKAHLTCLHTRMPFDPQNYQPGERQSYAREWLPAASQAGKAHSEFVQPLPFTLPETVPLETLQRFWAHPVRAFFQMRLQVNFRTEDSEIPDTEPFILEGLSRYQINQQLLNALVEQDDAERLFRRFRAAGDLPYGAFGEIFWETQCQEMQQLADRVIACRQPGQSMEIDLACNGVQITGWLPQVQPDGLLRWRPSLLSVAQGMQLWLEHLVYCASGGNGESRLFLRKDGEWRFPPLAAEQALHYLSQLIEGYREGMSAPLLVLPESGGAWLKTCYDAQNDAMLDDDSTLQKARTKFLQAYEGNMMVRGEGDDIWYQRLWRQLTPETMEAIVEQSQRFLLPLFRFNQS
T2 sequence (P08394 whole entry): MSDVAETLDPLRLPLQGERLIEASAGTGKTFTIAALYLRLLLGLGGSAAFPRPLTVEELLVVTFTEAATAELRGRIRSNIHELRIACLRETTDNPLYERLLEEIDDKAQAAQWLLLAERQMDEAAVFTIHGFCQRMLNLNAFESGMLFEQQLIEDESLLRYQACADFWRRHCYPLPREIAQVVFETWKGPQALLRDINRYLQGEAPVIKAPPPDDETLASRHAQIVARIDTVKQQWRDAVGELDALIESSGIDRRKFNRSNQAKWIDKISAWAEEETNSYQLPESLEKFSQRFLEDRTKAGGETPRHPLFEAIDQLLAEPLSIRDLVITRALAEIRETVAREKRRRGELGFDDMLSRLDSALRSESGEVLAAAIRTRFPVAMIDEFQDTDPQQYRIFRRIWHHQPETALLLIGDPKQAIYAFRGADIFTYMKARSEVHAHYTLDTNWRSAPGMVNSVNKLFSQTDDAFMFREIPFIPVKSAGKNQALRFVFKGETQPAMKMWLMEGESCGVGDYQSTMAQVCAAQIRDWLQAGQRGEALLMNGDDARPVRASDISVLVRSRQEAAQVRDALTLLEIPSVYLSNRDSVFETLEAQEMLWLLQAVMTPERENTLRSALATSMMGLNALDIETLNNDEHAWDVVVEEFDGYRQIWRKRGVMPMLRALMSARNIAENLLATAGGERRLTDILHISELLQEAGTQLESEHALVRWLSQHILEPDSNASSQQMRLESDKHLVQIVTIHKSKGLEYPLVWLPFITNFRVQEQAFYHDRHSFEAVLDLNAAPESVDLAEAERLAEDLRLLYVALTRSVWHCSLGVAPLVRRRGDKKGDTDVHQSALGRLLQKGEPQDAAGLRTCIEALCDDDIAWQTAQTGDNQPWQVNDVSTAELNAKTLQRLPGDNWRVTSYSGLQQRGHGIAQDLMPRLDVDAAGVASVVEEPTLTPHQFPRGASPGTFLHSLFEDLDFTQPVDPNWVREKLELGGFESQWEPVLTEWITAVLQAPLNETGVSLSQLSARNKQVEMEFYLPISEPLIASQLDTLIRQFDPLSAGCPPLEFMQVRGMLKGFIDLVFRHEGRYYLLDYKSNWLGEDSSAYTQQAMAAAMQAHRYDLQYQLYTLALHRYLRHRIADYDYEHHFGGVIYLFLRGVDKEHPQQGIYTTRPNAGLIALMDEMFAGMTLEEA
Briefly: RecBCD inhibition via phage-restricted bacterial growth – absorbance, V66 E. coli, mutant T4 phage, counter-screen for AddAB inhibitor project, dose response (AID 492957). Format: functional, cell-based, Escherichia coli str. K-12 substr. MG1655.

The values below come from ChEMBL document CHEMBL1201862, “PubChem BioAssay data set” (2004).

Calls of active or inactive are those of the source.

Regarding `C=C(C(=O)c1ccccc1)C(CC(=O)c1ccccc1)c1ccccc1` (stereo unspecified), the EC50 (as a rule, the concentration that produces a half-maximal response) in the assay with HEK293 [1] was 8.67 µM (active); in assay [7], 7.91 µM (active). Also, the AC50 (commonly the midpoint of the concentration-response curve, whichever way the signal moves) in assay [2] was 2.07 µM (active). Moreover, the IC50 (usually the concentration that gives 50% inhibition) with HEK293 [3] is > 20 µM (inactive); in the assay on HEK293 [4] it was 1.42 µM (active); in the assay with HEK293 [5] it was 4.04 µM (active); in the assay with Vero [6], 21.4 µM (active). For the same compound, in the assay on Vero [8], the CC50 (in general, the concentration at which the toxic effect on the cells reaches its halfway point) is 21 µM (active).

With `COc1ccc(-c2nn(-c3ccccc3)cc2C(=O)NC(=S)NNC(=O)c2ccncc2)cc1`, the IC50 in the assay with Vero [6] was 16.6 µM (active). In the assay on Vero [8], the CC50 was 16.4 µM (active).

`CC1(C)CN=c2s/c(=C\c3ccc(Cl)cc3)c(=O)n2C1`: the AC50 in the assay on HeLa was 277 µM (active).

In the case of `C[C@]12CC[C@H](O)C[C@H]1CC[C@@H]1[C@@H]2CC[C@]2(C)[C@@H](C3=CC(=O)OC3)[C@@H](O)C[C@]12O` [GITOXIGENIN], the AC50 in assay [2] is 2.58 µM (active). The IC50 in the assay on Vero [6] was > 12.5 µM (active). Besides, the CC50 in the assay on Vero [8] was 6.88 µM (active).

In the case of `O=C1CCC(=O)N(O)CCCCCNC(=O)CCC(=O)N(O)CCCCCNC(=O)CCC(=O)N(O)CCCCCN1` [NOCARDAMINE], the IC50 (in [9]; on Exodeoxyribonuclease V) was > 119 µM (inactive) throughout.
